Test results published in PubChem BioAssay (NCI).
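Values below derive from 48-hour exposures of cells grown in 96-well plates, with endpoints linearly interpolated between the two concentrations bracketing the appropriate inhibition level. GI50: concentration for 50% inhibition of growth. TGI: total growth inhibition.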

Columns and labels:
Assay in all cases: NCI-60 cell line screen, 48 h
IGROV1 ovarian = system: IGROV1 ovarian
A549 NSCLC = system: A549 NSCLC
UACC-62 melanoma = system: UACC-62 melanoma
MCF7 breast = system: MCF7 breast
K-562 leukemia = system: K-562 leukemia
HL-60(TB) leukemia = system: HL-60(TB) leukemia
HCT-116 colon = system: HCT-116 colon
SK-MEL-2 melanoma = system: SK-MEL-2 melanoma
SF-539 CNS = system: SF-539 CNS
TK-10 renal = system: TK-10 renal
EKVX NSCLC = system: EKVX NSCLC
SNB-75 CNS = system: SNB-75 CNS
A498 renal = system: A498 renal
CAKI-1 renal = system: CAKI-1 renal
DU-145 prostate = system: DU-145 prostate
HOP-62 NSCLC = system: HOP-62 NSCLC
MDA-MB-231 breast = system: MDA-MB-231 breast
HT29 colon = system: HT29 colon
MALME-3M melanoma = system: MALME-3M melanoma
786-0 renal = system: 786-0 renal
PC-3 prostate = system: PC-3 prostate
SF-268 CNS = system: SF-268 CNS
BT-549 breast = system: BT-549 breast
COLO 205 colon = system: COLO 205 colon
NCI-H460 lung = system: NCI-H460 lung
MDA-MB-435 = system: MDA-MB-435
M14 melanoma = system: M14 melanoma
OVCAR-5 ovarian = system: OVCAR-5 ovarian
NCI-H226 lung = system: NCI-H226 lung
UO-31 renal = system: UO-31 renal
CCRF-CEM leukemia = system: CCRF-CEM leukemia
SNB-19 CNS = system: SNB-19 CNS
RXF 393 renal = system: RXF 393 renal
HS 578T breast = system: HS 578T breast
SF-295 CNS = system: SF-295 CNS
SK-MEL-5 melanoma = system: SK-MEL-5 melanoma
KM12 colon = system: KM12 colon
OVCAR-4 ovarian = system: OVCAR-4 ovarian
ACHN renal = system: ACHN renal
NCI-H522 lung = system: NCI-H522 lung
HCT-15 colon = system: HCT-15 colon
UACC-257 melanoma = system: UACC-257 melanoma
OVCAR-3 ovarian = system: OVCAR-3 ovarian
HOP-92 NSCLC = system: HOP-92 NSCLC
SW-620 colon = system: SW-620 colon
NCI-H23 lung = system: NCI-H23 lung
LOX IMVI melanoma = system: LOX IMVI melanoma
SN12C renal = system: SN12C renal
HCC-2998 colon = system: HCC-2998 colon
SK-MEL-28 melanoma = system: SK-MEL-28 melanoma
SR leukemia = system: SR leukemia
SK-OV-3 ovarian = system: SK-OV-3 ovarian
MOLT-4 leukemia = system: MOLT-4 leukemia
OVCAR-8 ovarian = system: OVCAR-8 ovarian
U251 CNS = system: U251 CNS
RPMI-8226 leukemia = system: RPMI-8226 leukemia
NCI/ADR-RES ovarian = system: NCI/ADR-RES ovarian

CNCCCNc1nc2ccccc2c2c(=O)c3cc(F)ccc3sc12
GI50 (IGROV1 ovarian): 1370 nM | TGI (IGROV1 ovarian): 2760 nM | GI50 (A549 NSCLC): 1660 nM | TGI (A549 NSCLC): 3610 nM | GI50 (UACC-62 melanoma): 1760 nM | TGI (UACC-62 melanoma): 3170 nM | GI50 (MCF7 breast): 1410 nM | TGI (MCF7 breast): 2950 nM | GI50 (K-562 leukemia): 1900 nM | TGI (K-562 leukemia): 5080 nM | GI50 (HL-60(TB) leukemia): 1810 nM | TGI (HL-60(TB) leukemia): 3690 nM | GI50 (HCT-116 colon): 1500 nM | TGI (HCT-116 colon): 2920 nM | GI50 (SK-MEL-2 melanoma): 1940 nM | TGI (SK-MEL-2 melanoma): 3650 nM | GI50 (SF-539 CNS): 1740 nM | TGI (SF-539 CNS): 3160 nM | GI50 (TK-10 renal): 1800 nM | TGI (TK-10 renal): 3410 nM | GI50 (EKVX NSCLC): 1550 nM | TGI (EKVX NSCLC): 2940 nM | GI50 (SNB-75 CNS): 1410 nM | TGI (SNB-75 CNS): 2760 nM | GI50 (A498 renal): 1350 nM | TGI (A498 renal): 2700 nM | GI50 (CAKI-1 renal): 1480 nM | TGI (CAKI-1 renal): 2800 nM | GI50 (DU-145 prostate): 1660 nM | TGI (DU-145 prostate): 3030 nM | GI50 (HOP-62 NSCLC): 1500 nM | TGI (HOP-62 NSCLC): 3230 nM | GI50 (MDA-MB-231 breast): 1330 nM | TGI (MDA-MB-231 breast): 2700 nM | GI50 (HT29 colon): 1650 nM | TGI (HT29 colon): 3450 nM | GI50 (MALME-3M melanoma): 1550 nM | TGI (MALME-3M melanoma): 3010 nM | GI50 (786-0 renal): 1440 nM | TGI (786-0 renal): 2870 nM | GI50 (PC-3 prostate): 1640 nM | TGI (PC-3 prostate): 3250 nM | GI50 (SF-268 CNS): 1470 nM | TGI (SF-268 CNS): 2990 nM | GI50 (BT-549 breast): 1790 nM | TGI (BT-549 breast): 3320 nM | GI50 (COLO 205 colon): 1770 nM | TGI (COLO 205 colon): 3780 nM | GI50 (NCI-H460 lung): 1380 nM | TGI (NCI-H460 lung): 2670 nM | GI50 (MDA-MB-435): 1590 nM | TGI (MDA-MB-435): 2940 nM | GI50 (M14 melanoma): 1720 nM | TGI (M14 melanoma): 3220 nM | GI50 (OVCAR-5 ovarian): 1620 nM | TGI (OVCAR-5 ovarian): 3030 nM | GI50 (NCI-H226 lung): 1720 nM | TGI (NCI-H226 lung): 3280 nM | GI50 (UO-31 renal): 1310 nM | TGI (UO-31 renal): 2580 nM | GI50 (CCRF-CEM leukemia): 1800 nM | TGI (CCRF-CEM leukemia): 4340 nM | GI50 (SNB-19 CNS): 1650 nM | TGI (SNB-19 CNS): 3110 nM | GI50 (RXF 393 renal): 1340 nM | TGI (RXF 393 renal): 2750 nM | GI50 (HS 578T breast): 1450 nM | TGI (HS 578T breast): 3110 nM | GI50 (SF-295 CNS): 1810 nM | TGI (SF-295 CNS): 3230 nM | GI50 (SK-MEL-5 melanoma): 1690 nM | TGI (SK-MEL-5 melanoma): 3070 nM | GI50 (KM12 colon): 1630 nM | TGI (KM12 colon): 3100 nM | GI50 (OVCAR-4 ovarian): 1690 nM | TGI (OVCAR-4 ovarian): 3250 nM | GI50 (ACHN renal): 1490 nM | TGI (ACHN renal): 2810 nM | GI50 (NCI-H522 lung): 1860 nM | TGI (NCI-H522 lung): 3730 nM | GI50 (HCT-15 colon): 1420 nM | TGI (HCT-15 colon): 2760 nM | GI50 (UACC-257 melanoma): 1920 nM | TGI (UACC-257 melanoma): 3740 nM | GI50 (OVCAR-3 ovarian): 1560 nM | TGI (OVCAR-3 ovarian): 2950 nM | GI50 (HOP-92 NSCLC): 1020 nM | TGI (HOP-92 NSCLC): 2420 nM | GI50 (SW-620 colon): 1480 nM | TGI (SW-620 colon): 2850 nM | GI50 (NCI-H23 lung): 1690 nM | TGI (NCI-H23 lung): 3150 nM | GI50 (LOX IMVI melanoma): 1470 nM | TGI (LOX IMVI melanoma): 2800 nM | GI50 (SN12C renal): 1610 nM | TGI (SN12C renal): 3050 nM | GI50 (HCC-2998 colon): 1680 nM | TGI (HCC-2998 colon): 3290 nM | GI50 (SK-MEL-28 melanoma): 1830 nM | TGI (SK-MEL-28 melanoma): 3250 nM

COc1cc2c(cc1OCCCN1CCN(C)CC1)N=C[C@@H]1CCCN1C2=O
TGI (SR leukemia): 839 nM | TGI (A549 NSCLC): 5940 nM | TGI (SK-OV-3 ovarian): 23200 nM | TGI (UACC-62 melanoma): 3750 nM | TGI (MCF7 breast): > 100000 nM | TGI (K-562 leukemia): 14200 nM | TGI (HL-60(TB) leukemia): 5370 nM | TGI (MOLT-4 leukemia): 2530 nM | TGI (HCT-116 colon): 9470 nM | TGI (SK-MEL-2 melanoma): 7410 nM | TGI (SF-539 CNS): 4970 nM | TGI (TK-10 renal): > 100000 nM | TGI (EKVX NSCLC): 6020 nM | TGI (A498 renal): 5750 nM | TGI (CAKI-1 renal): 3120 nM | TGI (DU-145 prostate): 5980 nM | TGI (HOP-62 NSCLC): 9640 nM | TGI (MDA-MB-231 breast): 22300 nM | TGI (HT29 colon): 4990 nM | TGI (786-0 renal): 18300 nM | TGI (PC-3 prostate): 9780 nM | TGI (SF-268 CNS): > 100000 nM | TGI (BT-549 breast): 6590 nM | TGI (COLO 205 colon): 2250 nM | TGI (NCI-H460 lung): > 100000 nM | TGI (OVCAR-8 ovarian): 8790 nM | TGI (MDA-MB-435): 3770 nM | TGI (M14 melanoma): 4990 nM | TGI (OVCAR-5 ovarian): 7010 nM | TGI (NCI-H226 lung): 4620 nM | TGI (U251 CNS): 14500 nM | TGI (UO-31 renal): > 100000 nM | TGI (CCRF-CEM leukemia): 10600 nM | TGI (SNB-19 CNS): > 100000 nM | TGI (RPMI-8226 leukemia): 3680 nM | TGI (RXF 393 renal): 6030 nM | TGI (NCI/ADR-RES ovarian): 21100 nM | TGI (HS 578T breast): > 100000 nM | TGI (SF-295 CNS): 5370 nM | TGI (SK-MEL-5 melanoma): 9290 nM | TGI (KM12 colon): 4950 nM | TGI (OVCAR-4 ovarian): 4780 nM | TGI (ACHN renal): 6120 nM | TGI (NCI-H522 lung): 518 nM | TGI (HCT-15 colon): 7020 nM | TGI (UACC-257 melanoma): 5680 nM | TGI (HOP-92 NSCLC): 4650 nM | TGI (LOX IMVI melanoma): 4380 nM | TGI (SN12C renal): > 100000 nM | TGI (SK-MEL-28 melanoma): 3970 nM
